Data taken from US20090170886A1 (Pfizer Inc, priority 2005, published 2009).
Like-named read-outs stand apart in the source and are kept apart here.

System: sebum production in ear sebaceous glands of male Syrian hamsters
Assay: Animal Model for Inhibition of Sebum Production (hamster ear, HPLC of sebum lipids)
Assay type: in vivo, Syrian hamster
Conditions: Mesocricetus auratus, 672 h, 4 weeks; for inhibition in vivo at 1 %: 1% topical twice daily; for inhibition in vivo at 3 %: 3% topical twice daily; for inhibition in vivo at 1.5 %: 1.5% topical twice daily
Method: Luderschmidt et al. describes an animal model for testing whether compounds are capable of modulating sebum secretion, Arch. Derm. Res., 258, 185-191 (1977). This model uses male Syrian hamsters, whose ears contain sebaceous glands. Based on binding data and cellular assay data, selected compounds were chosen for screening in this model. Those compounds included the products of Examples 1, 20, 81, 82, and 109.
Testing for sebum inhibition was carried out in the following manner. Male Syrian hamsters aged 9 to 10 weeks were introduced into the laboratory environment and acclimated for 2 weeks prior to use in the study. Each group consisted of 5 animals and run in parallel with vehicle and positive controls. Prior to administration, a sufficient quantity of each compound was dissolved in 1 mL of a solvent consisting of ethanol, transcutol, and propylene glycol ([…]) to achieve the final concentration specified in Table IV below.
Animals were dosed topically twice daily, five days a week, for 4 weeks. Each dose consisted of 25 micro liters of vehicle control or drug. The dose was applied to the ventral surfaces of both the right and left ears. All animals were sacrificed approximately 18-24 hours after the final dose. The right ears were collected from each animal and used for sebum analysis.
The ears were prepped for HPLC analysis in the following manner. One 8 mm distal biopsy punch was taken, just above the anatomical “V” mark in the ear to normalize the sample area. The punch was pulled apart. The ventral biopsy surface (the area where the topical dose was directly applied to the sebaceous glands) was retained for testing and the dorsal surface of the biopsy punch was discarded.
Tissue samples were blown with N2 gas and stored at −80° C. under nitrogen until HPLC analysis. In addition to ear samples, an aliquot of each drug and vehicle (at least 250 ul) was also stored at −80° C. for inclusion in the HPLC analysis.
HPLC analysis was carried out on an extract of the tissue sample. Tissue samples were contacted with 3 ml of solvent (a 4:1 admixture of 2,2,4-trimethylpentane and isopropyl alcohol). The mixture was shaken for 15 minutes and stored overnight at room temperature, protected from light. The next morning 1 milliliter of water was added to the sample and shaken for 15 minutes. The sample was then centrifuged at approximately 1500 rpm for 15 minutes. Two ml of the organic phase (top layer) was transferred to a glass vial, dried at 37° C., under nitrogen, for approximately 1 hour, and then lyophilized for approximately 48 hours. The samples were then removed from the lyophilizer and each vial was reconstituted with 600 μl of solvent A (trimethylpentane/tetrahydrofuran (99:1)). The samples were then recapped and vortexed for 5 minutes.
Two hundred (200) μl of each sample was then transferred to a pre-labeled 200 μl HPLC vial with 200 μL glass inserts. The HPLC vials were placed in the autosampler tray for the Agilent 1100 series HPLC unit. The Agilent 1100 HPLC system consisted of a thermostated autosampler, a quarternary pump, a column heater, and an A/D interface module. All components were controlled by Agilent ChemStation software. A Waters Spherisorb S3W 4.6×100 mm analytical column was maintained at 30° C. by the Agilent column heater unit.
The HPLC autosampler was programmed to maintain the sample temperature at 20° C. throughout the run.
Ten (10) uL of each sample was injected in triplicate into the column. Two solvents were used for the solvent gradient. Solvent A was an admixture of trimethylpentane and tetrahydrofuran (99:1). Solvent B was ethylacetate. The gradient utilized is described in the table below: […]
The Sedex 75 Evaporative Light Scattering Detector (ELSD) was operated at 45° C. with a gain of 5, and N2 pressure maintained at 3.1 bar. Analog signal obtained by the instrument was sent to the Agilent A/D interface module where it was converted to a digital output. […]

[1] = cholesterol ester vs vehicle control, read-out: % CE reduction
[2] = wax ester vs vehicle control, read-out: % WE reduction

Row | SMILES | inhibition in vivo at 1 % [1] [%] | inhibition in vivo at 1 % [2] [%] | also measured
1 | CC(C)CC(Oc1ccc(C#N)c(C(F)(F)F)c1)c1cccc(O)c1 (single isomer, unassigned; (+)) [Example 21, (+)4-[1-(3-Hydroxyphenyl)-3-methylbutoxy]-2-(trifluoromethyl)benzonitrile] | 7 | 19 | –
2 | CCC(Oc1ccc(C#N)c(C(F)(F)F)c1)c1ccccn1 (stereo not drawn) [Example 79, 4-(1-Pyridin^−2-yl-propoxy)-2-trifluoromethyl-benzonitrile] | 20 | 27 | –
3 | CCCC(Oc1ccc(C#N)c(C(F)(F)F)c1)c1cccc(O)c1 (racemic) [Example 14, 4-[1-(3-Hydroxyphenyl)butoxy]-2-(trifluoromethyl)benzonitrile] | – | – | inhibition in vivo at 3 % [1]: 18%; inhibition in vivo at 3 % [2]: 38%
4 | N#Cc1ccc(OCc2cccc(O)c2)cc1C(F)(F)F [Example 6, 4-[(3-Hydroxybenzyl)oxy]-2-(trifluoromethyl)benzonitrile] | – | – | inhibition in vivo at 1.5 % [1]: 25%; inhibition in vivo at 1.5 % [2]: 40%
5 | CC(Oc1ccc(C#N)c(C(F)(F)F)c1)c1cccc(O)c1 (single isomer, unassigned; (-)) [Example 9, (−)-4-[1-(3-Hydroxyphenyl)ethoxy]-2-(trifluoromethyl)benzonitrile] | – | – | inhibition in vivo at 3 % [1]: 38%; inhibition in vivo at 3 % [2]: 52%
6 | CC(C)CC(Oc1ccc(C#N)c(C(F)(F)F)c1)c1cccnc1 (stereo not drawn) [Example 88, 4-(3-Methyl-1-pyridin-3-yl-butoxy)-2-trifluoromethyl-benzonitrile] | 17 | 25 | –
7 | CCCC(Oc1ccc(C#N)c(C(F)(F)F)c1)c1cccc(O)c1 (single isomer, unassigned; (+)) [Example 15, (+)4-[1-(3-Hydroxyphenyl)butoxy]-2-(trifluoromethyl)benzonitrile] | -10 | -13 | –
8 | C=CCC(Oc1ccc(C#N)c(C(F)(F)F)c1)c1cccc(O)c1 (single isomer, unassigned; (-)) [Example 19, (−)4-{[1-(3-Hydroxyphenyl)but-3-enyl]oxy}-2-(trifluoromethyl)benzonitrile] | 6 | 13 | –
9 | COc1cccc(C(C)Oc2ccc(C#N)c(C(F)(F)F)c2)n1 (stereo not drawn) [Example 80, 4-[1-(6-Methoxy-pyridin-2-yl)-ethoxy]-2-trifluoromethyl-benzonitrile] | 39 | 50 | –
10 | CC(Oc1ccc(C#N)c(C(F)(F)F)c1)c1cncc(O)c1 (single isomer, unassigned; (+)) [Example 74, (+)4-[1-(5-Hydroxypyridin-3-yl)ethoxy]-2-(trifluoromethyl)benzonitrile] | 21 | 24 | –
11 | CC(Oc1ccc(C#N)c(C(F)(F)F)c1)c1ccccc1 (racemic) [Example 1, 4-(1-Phenyl-ethoxy)-2-trifluoromethyl-benzonitrile] | – | – | inhibition in vivo at 3 % [1]: 52%; inhibition in vivo at 3 % [2]: 71%
12 | Cc1ccc(C(CC(C)C)Oc2ccc(C#N)c(C(F)(F)F)c2)cn1 (stereo not drawn) [Example 89, 4-[3-Methyl-1-(6-methyl-pyridin-3-yl)-butoxy]-2-trifluoromethyl-benzonitrile] | 21 | 35 | –
